{"source": "patent US10399966B2", "about": "“Compounds for treatment of trypanosomes and neurological pathogens and uses thereof” (The University of North Carolina at Chapel Hill, priority 2016, dated 2019)", "key": {"T. b. brucei": {"system": "T. b. brucei", "experiment": "In vitro antitrypanosomal activity against T. brucei (growth inhibition)", "format": "cell-based, Trypanosoma brucei", "procedure,_shortened": "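Dose-response EC50 against T. brucei parasites with 0.4% DMSO final, 48 h at 37 °C; parasite density quantified by ATP luminescence (CellTiter-Glo).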"}, "Plasmodium falciparum": {"system": "Plasmodium falciparum", "experiment": "Antimicrobial activity against Plasmodium falciparum", "format": "cell-based", "conditions": "Table 1, Plasmodium falciparum"}, "[1]": {"experiment": "Metabolic stability in human liver microsomes", "format": "in vitro ADME", "method": "Metabolic stability was evaluated using liver microsomes derived from mouse and human sources. Microsomal incubations were carried out according to a protocol described previously (Wang et al., Antimicrob. Agents Chemother. 54:2507 (2010)) with modifications. Briefly, substrate stock solutions were prepared in DMSO and DMSO content was kept at 0.5% (v/v) in final incubations. Incubation mixtures ([…]), liver microsomes (0.5 mg/mL) from mouse (pool of 1000, CD-1 male mouse) or human (pool of 50, mixed gender) (XenoTech LLC, Lenexa, Kans.) in a phosphate buffer (100 mM, pH 7.4) containing 3.3 mM MgCl2. After a 5-minute pre-equilibration period at 37° C., reactions (in triplicate) were initiated by adding the NADPH cofactor (1 mM). For NADPH-independent reactions, the cofactor was replaced with water. Aliquots (10 μl) of the reaction mixtures were removed at 0, 15, 30, and 60 minutes and individually mixed with 200 μL of ice-cold acetonitrile containing internal standard. The mixtures were vortex-mixed, and precipitated protein was removed by centrifugation at 2,250×g for 15 min. The supernatant fractions were dried using a 96-well microplate evaporator (Apricot Designs Inc., Covina, Calif.) under N2 at 50° C. and reconstituted with 100 μL 50% methanol containing 0.1% trifluoroacetic acid before UPLC-MS/MS analysis. In vitro half-life (t1/2) was obtained by analyzing the substrate concentration vs. incubation time curve using the one-phase exponential decay model (GraphPad Prism® 5.0, San Diego, Calif.)."}, "[2]": {"experiment": "Distribution between mouse plasma and brain (brain penetration, ip)", "format": "in vivo", "procedure,_shortened": "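Mice (n=3) received a single 5 mg/kg ip dose in 7% Tween 80, 3% ethanol, 5% DMSO, 0.9% saline and were sacrificed 1 h post-dose. Plasma and acetonitrile brain homogenates analysed by LC/MS/MS; brain concentration corrected for 2.5% vasculature volume, assuming 1 g = 1 mL.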"}, "[3]": {"experiment": "Rat pharmacokinetics, oral administration", "format": "in vivo", "parameters": "AUC(0-inf): unit not given here", "conditions": "20 mg/kg; for AUC(0-inf) / Cmax / Tmax: rat, in vivo, po", "method": "The pharmacokinetics of compound 1 was tested in rats after intravenous and oral administration. Two rats were administered 5 mg/kg compound 1 intravenously in a vehicle consisting of 7% Tween 80, 3% EtOH, 5% DMSO in saline. Two rats were administered 20 mg/kg compound 1 orally in a vehicle consisting of 5% DMSO, 0.5% Tween 80, 1% methylcellulose in water. The results are shown in Table 4 and FIGS. 3A-3B and 4A-4B."}, "[4]": {"system": "T. b. rhodesiense STIB900", "experiment": "Mouse efficacy model of acute T. brucei infection", "format": "in vivo", "conditions": "50 mg/kg po b.i.d. x 4 days from day 2, no detectable parasitemia 60 days post-infection", "method": "For acute efficacy studies in mice, experiments were carried out using the standard operating procedure used by WHO screening centers and done in compliance with the University of Washington Institutional Animal Care and Use Committee (IACUC) approved protocol. […] The test compound was administered by oral gavage at 50 mg/kg every 12 h from day 2 to day 5, for a total of 8 doses in a 200 μL volume of a vehicle consisting of DMSO (5%), Tween 80 (7%), and EtOH (3%) in physiological saline (0.9%) solution. Parasitemia was monitored via microscopic analysis of tail blood for 60 d post-infection, or until parasites were detected. Mice were removed from the experiment once parasites were detected in the blood. […] Efficacy PK blood samples were collected from three of the five mice prior to dose 7, and at 1 h and 6 h post-dose."}, "human hepatocytes HepG2": {"system": "human hepatocytes HepG2", "experiment": "Cytotoxicity against HepG2 cells"}, "[5]": {"conditions": "Table 14, mice, single ip dose 5 mg/kg, one hour post-dose, ± SEM of 3 mice (compound 3: 6 mice)"}}, "note": "“And” between values parts separate entries of the source, which are not always exact repeats. Equal values may be shown once. Read-outs that look alike come from different tables or passages of the source.", "data": [{"molecule": "O=C(Nc1ccc2sc(-c3ccc(F)c(F)c3)nc2c1)N1CC[C@H](F)C1", "note": "[Compound 1, (S)-2-(3,4-Difluorophenyl)-5-(3-fluoro-N-pyrrolidylamido)benzothiazole]", "values": [{"measurement": "EC90", "setting": "T. b. brucei; Table 1, Trypanosoma brucei, read-out: EC90", "value": 54.8, "unit": "nM"}, {"measurement": "EC50", "setting": "T. b. brucei; Trypanosoma brucei, Table 1, Trypanosoma brucei, read-out: EC50", "value": 34.8, "unit": "nM"}, {"measurement": "EC50", "setting": "T. b. brucei; Trypanosoma brucei, Table 6, read-out: T. brucei EC50", "value": 34.8, "unit": "nM"}, {"measurement": "EC50", "setting": "T. b. brucei; Trypanosoma brucei, Table 8, read-out: T. brucei EC50", "value": 34.8, "unit": "nM"}, {"measurement": "EC50", "setting": "T. b. brucei; Trypanosoma brucei, Table 11, read-out: T. b. brucei EC50", "value": 34.8, "unit": "nM"}, {"measurement": "EC50", "setting": "T. b. brucei; Trypanosoma brucei, Table 12, read-out: T. b. brucei EC50", "value": 34.8, "unit": "nM"}, {"measurement": "EC50", "setting": "T. b. brucei; Trypanosoma brucei, Table 9, read-out: T. brucei EC50", "value": 34.8, "unit": "nM"}, {"measurement": "EC90", "setting": "T. b. brucei; Trypanosoma brucei, Table 9, read-out: T. brucei EC90", "value": 54.8, "unit": "nM"}, {"measurement": "EC50", "setting": "Plasmodium falciparum", "value": 16700, "unit": "nM"}, {"measurement": "Human microsomes, percentage of compound remaining", "setting": "[1]; Table 12, after 60 min (where t1/2 > 60 min)", "value": 53, "unit": "%"}, {"measurement": "half-life at 1.5 μM", "setting": "[1]; both sexes, human, liver microsomes, pH 7.4, Table 12, 37° C., NADPH (1 mM), microsomes 0.5 mg/mL, test compounds 1.5 μM, read-out: Human microsomes t1/2", "value": "> 1", "unit": "h"}, {"measurement": "half-life at 3 μM", "setting": "[1]; both sexes, liver microsomes, pH 7.4, human microsomes, read-out: microsomal half-life", "value": 1, "unit": "h"}, {"measurement": "Average brain/plasma ratio", "setting": "[2]; Table 2, mouse, n = 3", "value": "4.0000 ± 0.624"}, {"measurement": "Average [compound] brain", "setting": "[2]; Table 8, groups of 3 mice (compound 3: ± SEM of 6 mice)", "value": "9.07 ± 6.88", "unit": "µM"}, {"measurement": "Brain/plasma ratio", "setting": "[2]; Table 14, mice, single ip dose 5 mg/kg, one hour post-dose", "value": 4.0}, {"measurement": "[compound]Brain", "setting": "[2]; [5]", "value": "9.07 ± 3.973", "unit": "µM"}, {"measurement": "[compound]Plasma", "setting": "[2]; [5]", "value": "2.27 ± 0.888", "unit": "µM"}, {"measurement": "concentration at 1 h", "setting": "[2]; mouse, in vivo, 5 mg/kg, Table 2, mouse, n = 3, read-out: Average concentration in brain", "value": "9.07 ± 6.88", "unit": "µM"}, {"measurement": "concentration at 1 h", "setting": "[2]; mouse, in vivo, 5 mg/kg, Table 2, mouse, n = 3, read-out: Average concentration in plasma", "value": "2.27 ± 1.54", "unit": "µM"}, {"measurement": "concentration at 60 min", "setting": "[2]; mouse, in vivo, 5 mg/kg, Table 5 r15, mouse brain penetration (60 min), n = 3", "value": "2.27 ± 1.54", "unit": "µM"}, {"measurement": "concentration at 1 h", "setting": "[2]; mouse, in vivo, 5 mg/kg, Table 8, groups of 3 mice (compound 3: ± SEM of 6 mice), read-out: Average [compound] plasma", "value": "2.27 ± 1.54", "unit": "µM"}, {"measurement": "Apparent BA", "setting": "[3]; Mean ± SEM (n = 2)", "value": 116.85, "unit": "%"}, {"measurement": "Apparent BA", "setting": "[3]; Rat 3", "value": 110.29, "unit": "%"}, {"measurement": "Apparent BA", "setting": "[3]; Rat 4", "value": 123.40, "unit": "%"}, {"measurement": "AUC(0-inf)", "setting": "[3]; Mean ± SEM (n = 2)", "value": 6270}, {"measurement": "Cmax", "setting": "[3]; Mean ± SEM (n = 2)", "value": 8.92, "unit": "µM"}, {"measurement": "Tmax", "setting": "[3]; Mean ± SEM (n = 2)", "value": 7, "unit": "h"}, {"measurement": "AUC(0-inf)", "setting": "[3]; Rat 3", "value": 5770}, {"measurement": "Cmax", "setting": "[3]; Rat 3", "value": 7.31, "unit": "µM"}, {"measurement": "Tmax", "setting": "[3]; Rat 3", "value": 8, "unit": "h"}, {"measurement": "AUC(0-inf)", "setting": "[3]; Rat 4", "value": 6770}, {"measurement": "Cmax", "setting": "[3]; Rat 4", "value": 10.5, "unit": "µM"}, {"measurement": "Tmax", "setting": "[3]; Rat 4", "value": 6, "unit": "h"}, {"measurement": "mice cured (cures)", "setting": "[4]", "value": "5 of 5 and 5/5"}, {"measurement": "toxicity to the HepG2 cells (in words)", "setting": "human hepatocytes HepG2", "value": "no detectable toxicity"}, {"measurement": "EC50", "setting": "human hepatocytes HepG2; Homo sapiens, HepG2, read-out: HepG2 EC50", "value": "> 50000", "unit": "nM"}, {"measurement": "EC90", "setting": "human hepatocytes HepG2; read-out: HepG2 EC90, concentration required to inhibit growth by 90%, human hepatocytes", "value": "> 50000", "unit": "nM"}]}]}
